Paper PMC10247784, “Physiological activation of human and mouse bitter taste receptors by bile acids” (Communications Biology, 2023)
Several values for one entry are separate records, joined by “and”; a condition that tells them apart may be missing. Equal entries are not always repeated.

Molecular target: T1, human TAS2R14 (Homo sapiens, UniProt Q9NYV8)
T1 construct: expressed in transfected cells; host or cells: HEK293T-Gα16gust44
T1 sequence (Q9NYV8 1-317): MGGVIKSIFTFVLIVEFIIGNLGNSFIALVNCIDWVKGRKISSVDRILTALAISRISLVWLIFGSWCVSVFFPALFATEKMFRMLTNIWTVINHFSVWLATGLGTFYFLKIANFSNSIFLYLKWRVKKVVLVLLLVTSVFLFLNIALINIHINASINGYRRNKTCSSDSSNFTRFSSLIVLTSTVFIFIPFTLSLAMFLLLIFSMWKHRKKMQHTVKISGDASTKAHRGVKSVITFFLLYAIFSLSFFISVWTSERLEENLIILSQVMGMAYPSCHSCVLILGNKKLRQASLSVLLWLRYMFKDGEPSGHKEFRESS
Test: Calcium imaging assay (FLIPR), HEK293T-Gα16gust44 cells transfected with human TAS2R14
Type: cell-based
Details: for RLU: TAS2R14 trace
Experimental: This set of bile acids was chosen because of their commercial availability in high purities, their diversity within the class of bile acids and their previous detection and quantitation in human blood. Stock solutions were prepared in DMSO.
As basal growth medium for the HEK293T-Gα16gust44 cell line[17],[59] served Dulbecco’s modified eagle medium (DMEM) (Thermo Fisher Scientific, Darmstadt, Germany) supplemented with 10 % fetal bovine serum (Sigma-Aldrich, Steinheim, Germany), 2 mM L-glutamine (Sigma-Aldrich, Steinheim, Germany), 100 units/ml penicillin (Sigma Aldrich, Steinheim, Germany) and 100 µg/ml streptomycin (Sigma Aldrich, Steinheim, Germany). Growth conditions were 37 °C, 5 % CO2 and saturated air-humidity[60].
HEK293T-Gα16gust44 cells were seeded on poly-D-lysine (10 µg/ml) coated 96-well plates to reach a confluence of 40-60 % the next day. For transient transfection 150 ng of plasmid DNA containing the receptor of interest and 0.3 µl lipofectamine 2000 (Thermo Fisher Scientific, Darmstadt, Germany) per well were used and transfection took place according to the manual of lipofectamine 2000. […] The empty vector DNA (mock) was transfected as negative control[14],[41].
Cells were loaded using the calcium-sensitive fluorescent dye Fluo-4-AM (Abcam, Cambridge, Great Britain) in the presence of 2.5 mM probenecid (Sigma-Aldrich, Steinheim, Germany) the day after transfection[13],[41]. 1 h after loading, cells were washed with C1 buffer using a BioTek Cell Washer, incubated in the dark for half an hour and washed again. For automated agonist application and measurement of fluorescence changes, a FLIPR^TETRA device (Molecular Devices, San José, United States) was used. Viability of cells was tested by application of 100 nM Somatostatin 14 (Bachem, Bubendorf, Switzerland)[42].
Measured data were negative control corrected by subtracting the signal of the mock-transfected cells and exported to Microsoft Excel using the FLIPR software ScreenWorks 4.2. In Microsoft Excel software, standardization of maximum fluorescence intensities to the basal fluorescence and normalization to the buffer-only control was done to calculate the relative fluorescence changes (ΔF/F).
Initial screening experiments performed in duplicate wells were confirmed by at least one replication and representative traces were selected for display. All dose-response relationships were determined by three independent experiments (biological replicates) performed in duplicates (technical replicates). Threshold concentrations, defined as lowest substance concentrations leading to statistically significant elevated fluorescence changes in receptor-transfected cells compared with empty vector-transfected cells, were determined using SigmaPlot with Student’s t-test to evaluate statistical significance (p < 0.01).

C[C@H](CCC(=O)O)[C@H]1CC[C@H]2[C@@H]3[C@H](O)C[C@@H]4C[C@H](O)CC[C@]4(C)[C@H]3CC[C@]12C [Chenodeoxycholic Acid, chenodeoxycholic acid]
Efficacy = maximal amplitude (ΔF/F) (TAS2R14, bile acids, mean): 0.05441
Efficacy (maximal amplitude ΔF/F), individual data points (TAS2R14, bile acids, single replicates, listed as CDCA): 0.0148 and 0.07816 and 0.07028
Δ F/F (TAS2R14, conc. 0,01 mM): 0.006116
Δ F/F (TAS2R14, conc. 0,03 mM): 0.05441
Δ F/F (TAS2R14, conc. 0,00003 mM): -0.01882
Δ F/F (TAS2R14, conc. 0,0001 mM): -0.01861
Δ F/F (TAS2R14, conc. 0,0003 mM): -0.02118
Δ F/F (TAS2R14, conc. 0,001 mM): -0.02299
Δ F/F (TAS2R14, conc. 0,003 mM): -0.02084
RLU (Time (s) 0): 0 RLU
RLU (Time (s) 2 (Taurocholic Acid 2.016)): -49.1645 RLU
RLU (Time (s) 4 (Taurocholic Acid 4.016)): -25.5098 RLU
RLU (Time (s) 6 (Taurocholic Acid 6.016)): -14.6279 RLU
RLU (Time (s) 8 (Taurocholic Acid 8.016)): -24.697 RLU
RLU (Time (s) 12 (Taurocholic Acid 12.016)): -44.0879 RLU
RLU (Time (s) 14 (Taurocholic Acid 14.016)): -37.1122 RLU
RLU (Time (s) 16 (Taurocholic Acid 16.016)): -43.9695 RLU
RLU (Time (s) 18 (Taurocholic Acid 18.016)): -32.8497 RLU
RLU (Time (s) 18.797 (Chenodeoxycholic Acid 18.765)): 7.956 RLU
RLU (Time (s) 20.797 (Chenodeoxycholic Acid 20.781)): 109.495 RLU
RLU (Time (s) 22.797 (Chenodeoxycholic Acid 22.781)): 144.429 RLU
RLU (Time (s) 24.797 (Chenodeoxycholic Acid 24.781)): 188.481 RLU
RLU (Time (s) 26.797 (Chenodeoxycholic Acid 26.781)): 194.457 RLU
RLU (Time (s) 28.797 (Chenodeoxycholic Acid 28.781)): 226.874 RLU
RLU (Time (s) 30.797 (Chenodeoxycholic Acid 30.781)): 234.892 RLU
RLU (Time (s) 32.797 (Chenodeoxycholic Acid 32.781)): 237.826 RLU
RLU (Time (s) 34.797 (Chenodeoxycholic Acid 34.781)): 263.919 RLU
RLU (Time (s) 36.797 (Chenodeoxycholic Acid 36.781)): 289.916 RLU
RLU (Time (s) 38.797 (Chenodeoxycholic Acid 38.781)): 280.38 RLU
RLU (Time (s) 40.797 (Chenodeoxycholic Acid 40.781)): 364.7 RLU
RLU (Time (s) 42.797 (Chenodeoxycholic Acid 42.781)): 389.665 RLU
RLU (Time (s) 44.797 (Chenodeoxycholic Acid 44.781)): 409.588 RLU
RLU (Time (s) 46.797 (Chenodeoxycholic Acid 46.781)): 412.285 RLU
RLU (Time (s) 48.797 (Chenodeoxycholic Acid 48.781)): 462.382 RLU
RLU (Time (s) 50.797 (Chenodeoxycholic Acid 50.781)): 489.05 RLU
RLU (Time (s) 52.797 (Chenodeoxycholic Acid 52.781)): 480.824 RLU
RLU (Time (s) 54.797 (Chenodeoxycholic Acid 54.781)): 484 RLU
RLU (Time (s) 56.797 (Chenodeoxycholic Acid 56.781)): 514.521 RLU
RLU (Time (s) 58.797 (Chenodeoxycholic Acid 58.781)): 561.552 RLU
RLU (Time (s) 60.797 (Chenodeoxycholic Acid 60.781)): 547.999 RLU
RLU (Time (s) 62.797 (Chenodeoxycholic Acid 62.781)): 553.072 RLU
RLU (Time (s) 64.797 (Chenodeoxycholic Acid 64.781)): 596.368 RLU
RLU (Time (s) 66.797 (Chenodeoxycholic Acid 66.781)): 582.133 RLU
RLU (Time (s) 68.797 (Chenodeoxycholic Acid 68.781)): 591.364 RLU
RLU (Time (s) 70.797 (Chenodeoxycholic Acid 70.781)): 612.747 RLU
RLU (Time (s) 72.797 (Chenodeoxycholic Acid 72.781)): 626.948 RLU
RLU (Time (s) 74.797 (Chenodeoxycholic Acid 74.781)): 600.862 RLU
RLU (Time (s) 76.797 (Chenodeoxycholic Acid 76.781)): 644.716 RLU
RLU (Time (s) 78.797 (Chenodeoxycholic Acid 78.781)): 648.451 RLU
RLU (Time (s) 80.797 (Chenodeoxycholic Acid 80.781)): 604.524 RLU
RLU (Time (s) 82.797 (Chenodeoxycholic Acid 82.781)): 653.18 RLU
RLU (Time (s) 84.797 (Chenodeoxycholic Acid 84.781)): 678.438 RLU
RLU (Time (s) 86.797 (Chenodeoxycholic Acid 86.781)): 660.126 RLU
RLU (Time (s) 88.797 (Chenodeoxycholic Acid 88.781)): 638.796 RLU
RLU (Time (s) 90.797 (Chenodeoxycholic Acid 90.781)): 637.499 RLU
RLU (Time (s) 92.797 (Chenodeoxycholic Acid 92.781)): 628.913 RLU
RLU (Time (s) 94.797 (Chenodeoxycholic Acid 94.781)): 638.53 RLU
RLU (Time (s) 96.797 (Chenodeoxycholic Acid 96.781)): 632.564 RLU
RLU (Time (s) 98.797 (Chenodeoxycholic Acid 98.781)): 628.21 RLU
RLU (Time (s) 100.797 (Chenodeoxycholic Acid 100.781)): 613.502 RLU
RLU (Time (s) 102.797 (Chenodeoxycholic Acid 102.781)): 604.41 RLU
RLU (Time (s) 104.797 (Chenodeoxycholic Acid 104.781)): 599.892 RLU
RLU (Time (s) 106.797 (Chenodeoxycholic Acid 106.781)): 563.223 RLU
RLU (Time (s) 108.797 (Chenodeoxycholic Acid 108.781)): 594.081 RLU
RLU (Time (s) 110.797 (Chenodeoxycholic Acid 110.781)): 586.278 RLU
RLU (Time (s) 112.797 (Chenodeoxycholic Acid 112.781)): 550.791 RLU
RLU (Time (s) 114.797 (Chenodeoxycholic Acid 114.781)): 544.911 RLU
RLU (Time (s) 116.797 (Chenodeoxycholic Acid 116.781)): 535.277 RLU
RLU (Time (s) 118.797 (Chenodeoxycholic Acid 118.781)): 521.394 RLU
RLU (Time (s) 120.797 (Chenodeoxycholic Acid 120.781)): 516.9 RLU
RLU (Time (s) 122.797 (Chenodeoxycholic Acid 122.781)): 506.351 RLU
RLU (Time (s) 124.797 (Chenodeoxycholic Acid 124.781)): 491.947 RLU
RLU (Time (s) 126.797 (Chenodeoxycholic Acid 126.781)): 464.952 RLU
RLU (Time (s) 128.797 (Chenodeoxycholic Acid 128.781)): 465.396 RLU
RLU (Time (s) 130.797 (Chenodeoxycholic Acid 130.781)): 467.418 RLU
RLU (Time (s) 132.797 (Chenodeoxycholic Acid 132.781)): 469.949 RLU
RLU (Time (s) 134.797 (Chenodeoxycholic Acid 134.781)): 415.628 RLU
RLU (Time (s) 136.797 (Chenodeoxycholic Acid 136.781)): 432.183 RLU
RLU (Time (s) 137.562 (Taurocholic Acid 137.563, Chenodeoxycholic Acid 137.546)): 452.404 RLU
RLU (Time (s) 143.578 (Taurocholic Acid 143.563, Chenodeoxycholic Acid 143.546)): 380.071 RLU
RLU (Time (s) 149.578 (Taurocholic Acid 149.563, Chenodeoxycholic Acid 149.546)): 382.743 RLU
RLU (Time (s) 155.578 (Taurocholic Acid 155.563, Chenodeoxycholic Acid 155.546)): 336.968 RLU
RLU (Time (s) 161.578 (Taurocholic Acid 161.563, Chenodeoxycholic Acid 161.546)): 359.379 RLU
RLU (Time (s) 167.578 (Taurocholic Acid 167.563, Chenodeoxycholic Acid 167.546)): 343.975 RLU
RLU (Time (s) 173.578 (Taurocholic Acid 173.563, Chenodeoxycholic Acid 173.546)): 278.705 RLU
RLU (Time (s) 179.578 (Taurocholic Acid 179.563, Chenodeoxycholic Acid 179.546)): 300.666 RLU
RLU (Time (s) 191.578 (Taurocholic Acid 191.563, Chenodeoxycholic Acid 191.546)): 185.369 RLU
RLU (Time (s) 197.578 (Taurocholic Acid 197.563, Chenodeoxycholic Acid 197.546)): 161.87 RLU
RLU (Time (s) 209.578 (Taurocholic Acid 209.563, Chenodeoxycholic Acid 209.546)): 179.275 RLU
RLU (Time (s) 221.578 (Taurocholic Acid 221.563, Chenodeoxycholic Acid 221.546)): 182.465 RLU
RLU (Time (s) 233.578 (Taurocholic Acid 233.563, Chenodeoxycholic Acid 233.546)): 198.132 RLU
RLU (Time (s) 239.578 (Taurocholic Acid 239.563, Chenodeoxycholic Acid 239.546)): 183.585 RLU
RLU (Time (s) 245.578 (Taurocholic Acid 245.563, Chenodeoxycholic Acid 245.546)): 212.748 RLU
RLU (Time (s) 293.578 (Taurocholic Acid 293.563, Chenodeoxycholic Acid 293.546)): 209.963 RLU
RLU (Time (s) 299.578 (Taurocholic Acid 299.563, Chenodeoxycholic Acid 299.546)): 216.371 RLU
RLU (Time (s) 305.578 (Taurocholic Acid 305.563, Chenodeoxycholic Acid 305.546)): 208.994 RLU
RLU (Time (s) 311.578 (Taurocholic Acid 311.563, Chenodeoxycholic Acid 311.546)): 184.812 RLU
RLU (Time (s) 317.578 (Taurocholic Acid 317.563, Chenodeoxycholic Acid 317.546)): 189.014 RLU
RLU (Time (s) 323.578 (Taurocholic Acid 323.563, Chenodeoxycholic Acid 323.546)): 182.748 RLU
RLU (Time (s) 329.578 (Taurocholic Acid 329.563, Chenodeoxycholic Acid 329.546)): 195.394 RLU
RLU (Time (s) 335.578 (Taurocholic Acid 335.563, Chenodeoxycholic Acid 335.546)): 190.135 RLU
RLU (Time (s) 341.578 (Taurocholic Acid 341.563, Chenodeoxycholic Acid 341.546)): 187.029 RLU
RLU (Time (s) 347.578 (Taurocholic Acid 347.563, Chenodeoxycholic Acid 347.546)): 164.841 RLU
RLU (Time (s) 353.578 (Taurocholic Acid 353.563, Chenodeoxycholic Acid 353.546)): 198.762 RLU
RLU (Time (s) 359.578 (Taurocholic Acid 359.563, Chenodeoxycholic Acid 359.546)): 181.785 RLU
Activation threshold concentration TAS2R14 (lowest concentration with significantly increased fluorescence vs empty vector (p < 0.01)): 30 µM
Receptor response TAS2R14 (screening): activated
